# Measurements from patent US20240207427A1, “SELECTIVE DRUG RELEASE FROM INTERNALIZED CONJUGATES OF BIOLOGICALLY ACTIVE COMPOUNDS” (priority 2021, published 2024).
# Read-outs that look alike come from different tables or passages of the source.
# How the values were obtained:
# Type in all cases: cell-based
# [1] = system: non-small-cell lung cancer cells (Calu1); test: In vitro potency (CellTiter-Glo, 96 h), Calu1; settings: Homo sapiens, Calu-1, 96 h, CPT free drugs
# Protocol: (§1) In vitro potency was assessed on multiple cancer cell lines. All cell lines were authenticated by STR profiling at IDEXX Bioresearch and cultured for no more than 2 months after resuscitation. Cells cultured in log-phase growth were seeded for 24 hours in 96-well plates containing […] RPMI 1640 supplemented with 20% FBS. Serial dilutions of antibody-drug conjugates in cell culture media were prepared at 4× working concentrations, and 50 μL of each dilution was added to the 96-well plates. Following addition of test articles, cells were incubated with test articles for 4 days at 37 0° C. After 96 hours, growth inhibition was assessed by CellTiterGlo® (Promega, Madison, WI) and luminescence was measured on a plate reader.
# (§2) In Table 7, IC50 values for ADCs are given in ng/mL. Cell viability was determined by CellTiter-Glo staining after 96 h exposure to ADC. ND=Not Determined. Ag2 is an antibody targeting a ubiquitous and readily internalizable antigen. The cancer cell lines tested are renal carcinoma cells (786-0), melanoma cells (A2058), pancreatic cancer cells (BxPC3), non-small-cell lung cancer cells (Calu1), anaplastic large cell lymphoma cells (DEL, DELBVR, Karpas299), Hodgkin's lymphoma cells (L540cy), (Ls174T), breast cancer cells (MDA-MB-231), acute myeloid leukemia cells (MOLM-13), and B-lymphocyte cancer cells (SU-DHL4).
# (§3) In vitro potency was assessed on multiple cancer cell lines. All cell lines were authenticated by STR profiling at IDEXX Bioresearch and cultured for no more than 2 months after resuscitation. Cells cultured in log-phase growth were seeded for 24 hours in 96-well plates containing […] RPMI 1640 supplemented with 20% FBS. Following addition of test articles, cells were incubated with test articles for 4 days at 37 0° C. After 96 hours, growth inhibition was assessed by CellTiterGlo® (Promega, Madison, WI) and luminescence was measured on a plate reader.
# (§4) Cell viability was determined by CellTiter-Glo staining after 96 h exposure to the compound. ND=Not Determined. The cancer cell lines tested are renal carcinoma cells (786-0), melanoma cells (A2058), pancreatic cancer cells (BxPC3), non-small-cell lung cancer cells (Calu1), anaplastic large cell lymphoma cells (DEL, DELBVR, Karpas299), Hodgkin's lymphoma cells (L540cy), (Ls 174T), breast cancer cells (MDA-MB-231), acute myeloid leukemia cells (MOLM-13), B-lymphocyte cancer cells (SU-DHL4), multiple myeloma cells (MM.1R), (U266), and melanoma cells (SK-MEL-5).
# as §1, with “37°” for “37 0°”
# (§5) In the following Tables IC50 values for ADCs and CPT free drugs are given in ng/mL and nmol/L concentrations. Cell viability was determined by CellTiter-Glo staining after 96 h exposure to ADC or CPT free drug.
# (§6) Cell viability was determined by CellTiter-Glo staining after 96 h exposure to ADC. ND=Not Determined.
# [2] = system: anaplastic large cell lymphoma cells (DEL); test: In vitro potency (CellTiter-Glo, 96 h), DEL
# Outline: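 Log-phase cells were seeded for 24 h in RPMI 1640 with 20% FBS, then exposed to serially diluted antibody-drug conjugates or free camptothecin drug for 4 days at 37 °C. Growth inhibition was read by luminescence, and IC50 values were reported in ng/mL and nmol/L.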
# [3] = system: B-lymphocyte cancer cells (SU-DHL4); test: In vitro potency (CellTiter-Glo, 96 h), SU-DHL-4; settings: Homo sapiens, SU-DHL-4, 96 h
# Outline: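 Growth inhibition after 96 h at 37 °C with test article, measured by luminescence; cells in RPMI 1640, 20% FBS.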
# [4] = system: anaplastic large cell lymphoma cells (DELBVR); test: In vitro potency (CellTiter-Glo, 96 h), DELBVR
# Outline: (§7)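 IC50 (ng/mL or nmol/L) derived from CellTiter-Glo luminescence after 96 h exposure at 37 °C to serial dilutions of ADC or CPT free drug. Log-phase cells had been plated 24 h beforehand in RPMI 1640 containing 20% FBS.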
# [5] = system: Hodgkin's lymphoma cells (L540cy); test: In vitro potency (CellTiter-Glo, 96 h), L540cy
# Outline: as §7
# [6] = system: melanoma cells (A2058); test: In vitro potency (CellTiter-Glo, 96 h), A2058; settings: Homo sapiens, A2058, 96 h
# Protocol: as §1, §2, §3, §4
# as §1, with “37°” for “37 0°”
# as §5, §6
# [7] = system: renal carcinoma cells (786-O); test: In vitro potency (CellTiter-Glo, 96 h), 786-O; settings: Homo sapiens, 786-0, 96 h
# Outline: as §7
# [8] = system: pancreatic cancer cells (BxPC3); test: In vitro potency (CellTiter-Glo, 96 h), BxPC3; settings: Homo sapiens, BXPC-3, 96 h
# Outline: (§8)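 Seed log-phase cells 24 h (RPMI 1640, 20% FBS); add ADC serial dilutions; incubate 96 h, 37 °C; read luminescence; IC50 in ng/mL.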
# [9] = system: anaplastic large cell lymphoma cells (Karpas299); test: In vitro potency (CellTiter-Glo, 96 h), Karpas299; settings: Homo sapiens, KARPAS-299, 96 h
# Outline: as §7
# [10] = system: acute myeloid leukemia cells (MOLM-13); test: In vitro potency (CellTiter-Glo, 96 h), MOLM-13; settings: Homo sapiens, MOLM-13, 96 h
# Outline: as §8
# [11] = system: breast cancer cells (MDA-MB-231); test: In vitro potency (CellTiter-Glo, 96 h), MDA-MB-231; settings: Homo sapiens, MDA-MB-231, 96 h
# Outline: as §7
# [12] = system: Ls174T cells; test: In vitro potency (CellTiter-Glo, 96 h), Ls174T; settings: Homo sapiens, LS174T, 96 h
# Outline: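 Cells in log-phase growth are plated in RPMI 1640/20% FBS for 24 h. Serially diluted conjugates are then added, and plates are kept at 37 °C for 4 days before ATP-based luminescence gives growth inhibition.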
# [13] = Table 24, CellTiter-Glo after 96 h exposure, read-out: IC50 (nmol/L) Calu1
# [14] = CPT free drugs, Table 24, CellTiter-Glo after 96 h exposure, read-out: IC50 (nmol/L) DEL
# [15] = CPT free drugs, Table 24, CellTiter-Glo after 96 h exposure, read-out: IC50 (nmol/L) SU-DHL-4
# [16] = CPT free drugs, Table 24, CellTiter-Glo after 96 h exposure, read-out: IC50 (nmol/L) DELBVR
# [17] = CPT free drugs, Table 24, CellTiter-Glo after 96 h exposure, read-out: IC50 (nmol/L) L540cy
# [18] = CPT free drugs, Table 24, CellTiter-Glo after 96 h exposure, read-out: IC50 (nmol/L) A2058
# [19] = CPT free drugs, Table 24, CellTiter-Glo after 96 h exposure, read-out: IC50 (nmol/L) 786-O
# [20] = CPT free drugs, Table 24, CellTiter-Glo after 96 h exposure, read-out: IC50 (nmol/L) BxPC3
# [21] = CPT free drugs, Table 24, CellTiter-Glo after 96 h exposure, read-out: IC50 (nmol/L) Karpas299
# [22] = CPT free drugs, Table 24, CellTiter-Glo after 96 h exposure, read-out: IC50 (nmol/L) MOLM-13
# [23] = CPT free drugs, Table 24, CellTiter-Glo after 96 h exposure, read-out: IC50 (nmol/L) MDAMB231
# [24] = camptothecin free drug, read-out: DEL IC50
# [25] = camptothecin free drug, 96 h, read-out: SU-DHL-4 IC50
# [26] = camptothecin free drug, read-out: DELBVR IC50
# [27] = camptothecin free drug, read-out: L540cy IC50
# [28] = camptothecin free drug, 96 h, read-out: A2058 IC50
# [29] = camptothecin free drug, 96 h, read-out: 786-O IC50
# [30] = camptothecin free drug, 96 h, read-out: BxPC3 IC50
# [31] = camptothecin free drug, read-out: Ls174T IC50
# [32] = camptothecin free drug, 96 h, read-out: Karpas299 IC50
# [33] = camptothecin free drug, 96 h, read-out: MOLM-13 IC50
# [34] = camptothecin free drug, 96 h, read-out: MDAMB231 IC50
# [35] = read-out: DEL IC50, camptothecin free drug, 96 h
# [36] = read-out: SU-DHL-4 IC50, camptothecin free drug, 96 h
# [37] = read-out: DELBVR IC50, camptothecin free drug, 96 h
# [38] = read-out: L540cy IC50, camptothecin free drug, 96 h
# [39] = read-out: 786-O IC50, camptothecin free drug, 96 h
# [40] = read-out: BxPC3 IC50, camptothecin free drug, 96 h
# [41] = read-out: Ls174T IC50, camptothecin free drug, 96 h
# [42] = read-out: Karpas299 IC50, camptothecin free drug, 96 h
# [43] = read-out: MOLM-13 IC50, camptothecin free drug, 96 h
# [44] = read-out: MDAMB231 IC50, camptothecin free drug, 96 h
smiles,measurement,setting,value
CC[C@@]1(O)C(=O)OCc2c1cc1n(c2=O)Cc2c-1nc1ccc3c(c1c2CN)OCCO3 [Compound 2ag],IC50,[1]; [13],153 nmol/L
same,IC50,[2]; [14],6 nmol/L
same,IC50,[3]; [15],16 nmol/L
same,IC50,[4]; [16],13 nmol/L
same,IC50,[5]; [17],15 nmol/L
same,IC50,[6]; [18],10 nmol/L
same,IC50,[7]; [19],35 nmol/L
same,IC50,[8]; [20],57 nmol/L
same,IC50,[9]; [21],34 nmol/L
same,IC50,[10]; [22],63 nmol/L
same,IC50,[11]; [23],177 nmol/L
CC[C@@]1(O)C(=O)OCc2c1cc1n(c2=O)Cc2c-1nc1cc(F)c(SC)cc1c2CN [Compound 2at],IC50,"[1]; Table 28, non-small-cell lung cancer cells Calu1, 96 h, CellTiter-Glo, read-out: Calu1 IC50",37 nmol/L
CC[C@@]1(O)C(=O)OCc2c1cc1n(c2=O)Cc2c-1nc1cc3c(cc1c2CNCCCN(C)C(=O)OC(C)(C)C)OCO3 [Compound 7a],IC50,[2]; [24],25 nmol/L
same,IC50,[3]; [25],64 nmol/L
same,IC50,[4]; [26],49 nmol/L
same,IC50,[5]; [27],52 nmol/L
same,IC50,[6]; [28],23 nmol/L
same,IC50,[7]; [29],111 nmol/L
same,IC50,[8]; [30],81 nmol/L
same,IC50,[12]; [31],0.074 µM
same,IC50,[9]; [32],135 nmol/L
same,IC50,[10]; [33],223 nmol/L
same,IC50,[11]; [34],390 nmol/L
CC[C@@]1(O)C(=O)OCc2c1cc1n(c2=O)Cc2c-1nc1cc3c(cc1c2CNC[C@@H](O)CO)OCO3 [Compound 7u],IC50,[2]; [35],26 nmol/L
same,IC50,[3]; [36],66 nmol/L
same,IC50,[4]; [37],50 nmol/L
same,IC50,[5]; [38],60 nmol/L
same,IC50,[6]; read-out: A2058 IC50,19 nmol/L
same,IC50,[7]; [39],122 nmol/L
same,IC50,[8]; [40],108 nmol/L
same,IC50,[12]; [41],0.086 µM
same,IC50,[9]; [42],128 nmol/L
same,IC50,[10]; [43],456 nmol/L
same,IC50,[11]; [44],707 nmol/L
CC[C@@]1(O)C(=O)OCc2c1cc1n(c2=O)Cc2c-1nc1ccccc1c2CN [Compound 2ae],IC50,[1]; [13],65 nmol/L
same,IC50,[2]; [14],5 nmol/L
same,IC50,[3]; [15],8 nmol/L
same,IC50,[4]; [16],5 nmol/L
same,IC50,[5]; [17],6 nmol/L
same,IC50,[6]; [18],5 nmol/L
same,IC50,[7]; [19],17 nmol/L
same,IC50,[8]; [20],23 nmol/L
same,IC50,[9]; [21],14 nmol/L
same,IC50,[10]; [22],191 nmol/L
same,IC50,[11]; [23],107 nmol/L
CC[C@@]1(O)C(=O)OCc2c1cc1n(c2=O)Cc2c-1nc1cc3c(cc1c2CNCCCN(C)C)OCO3 [Compound 7t],IC50,[2]; [35],58 nmol/L
same,IC50,[3]; [36],97 nmol/L
same,IC50,[4]; [37],55 nmol/L
same,IC50,[5]; [38],70 nmol/L
same,IC50,[6]; read-out: A2058 IC50,64 nmol/L
same,IC50,[7]; [39],153 nmol/L
same,IC50,[8]; [40],171 nmol/L
same,IC50,[12]; [41],> 1 µM
same,IC50,[9]; [42],166 nmol/L
same,IC50,[10]; [43],326 nmol/L
same,IC50,[11]; [44],1000 nmol/L
CC[C@@]1(O)C(=O)OCc2c1cc1n(c2=O)Cc2c-1nc1cc3c(cc1c2CNCCCN1CCN(C(=O)OC(C)(C)C)CC1)OCO3 [Compound 7m],IC50,[2]; [24],55 nmol/L
same,IC50,[3]; [25],74 nmol/L
same,IC50,[4]; [26],54 nmol/L
same,IC50,[5]; [27],80 nmol/L
same,IC50,[6]; [28],58 nmol/L
same,IC50,[7]; [29],139 nmol/L
same,IC50,[8]; [30],173 nmol/L
same,IC50,[12]; [31],0.222 µM
same,IC50,[9]; [32],171 nmol/L
same,IC50,[10]; [33],459 nmol/L
same,IC50,[11]; [34],700 nmol/L
